Bridge positions count the residues as written; N and C are the ends. Square brackets hold non-standard residues; d marks the D form. Peptide text beside a SMILES is read from it. * marks the point of attachment. Heptanoyl(6-Me) = CC(C)CCCCC(=O)*; Dab = NCC[C@H](N)C(=O)O
Tested on: Klebsiella pneumoniae
Test: MALDI-TOF detection of released characteristic proteins, 10 min at 50° C., filtration (examples V, VI)
Assay type: cell-based
Conditions: for Aire sous la courbe des pics observés, Protéine ribosomique 50S L29 / Aire sous la courbe des pics observés, Protéine ribosomique 50S L31 / Aire sous la courbe des pics observés, Protéine ribosomique 50S L34 / Aire sous la courbe des pics observés, US9 / Ratio par protéine 6290/Colistine / Ratio par protéine 8308/Colistine / Ratio par protéine CsbD/Colistine / Ratio par protéine DNA BP H-NS/Colistine / Ratio par protéine L29/Colistine / Ratio par protéine L31/Colistine / Ratio par protéine L34/Colistine / Ratio par protéine US9/Colistine / Somme des ratios / Aire sous la courbe des pics observés, 6290 / Aire sous la courbe des pics observés, 8308 / Aire sous la courbe des pics observés, CsbD domain-containing protein / Aire sous la courbe des pics observés, DNA binding protein H-NS / sensitivity or resistance to colistin by MALDI-TOF: colistin 2.5 mg/ml, 10 min 50° C.; for classification by sum of the ratios against threshold: threshold 0.45
Protocol: The tests were carried out using the following steps: • preparing a suspension of microorganism at 2 McF in water (suspension medium, bioMérieux reference 70700), • preparing a solution of colistin sulfate (Sigma reference C4461) at a concentration of 2× in pure water (taking into account the colistin titer indicated by the manufacturer).
The proteins characteristic of the species Klebsiella pneumoniae are the DNA binding protein H-NS, the ribosomal proteins L29, L31, L34 and US9, the cold shock protein containing a CsbD domain (CsbD domain-containing protein), and the uncharacterized proteins with m/z 6290 and 8308. These proteins are characterized respectively by the peaks at 7705 (DNA binding protein H-NS), 7274 (L29), 7743 (L31), 5381 (L34), 7384 (US9), 8309 (CsbD), more or less 1000 parts per million (ppm). For their part, the hypothetical proteins are characterized by peaks at 6290 and […], more or less 1000 parts per million (ppm).
In the context of this example, the tests were carried out with the method of the present invention to determine the sensitivity or resistance of several bacteria of several strains such as in example V and comprising the following steps: • measuring the intensity of each peak observed, • finding a ratio between the sum of the intensities of the protein peaks of the microorganism and at least 1 peak of colistin. • determining the status, resistant or sensitive to colistin, as a function of the sum of the ratios obtained and of a threshold fixed for each species. • a resistant microorganism will have a low ratio and a sensitive microorganism will have a high ratio.
The K. pneumoniae strains KP S10-1, KP S10-2, KP S15-1, KP S15-2, KP R9-1, KP R9-2, KP R16-1 and KP R16-2 are also studied and the proteins characteristic of the species K. pneumoniae are analyzed. These characteristic proteins are the DNA binding protein H-NS, the ribosomal proteins L29, L31, L34 and US9, the cold shock protein containing a CsbD domain (CsbD domain-containing protein), and the uncharacterized proteins with m/z 6290 and 8308.

Question: How did the “Aire sous la courbe des pics observés, Protéine ribosomique 50S L29” value (strain KP S10-1) turn out when CC(C)CCCCC(=O)N[C@@H](CCN)C(=O)N[C@H](C(=O)N[C@@H](CCN)C(=O)N[C@H]1CCNC(=O)[C@H]([C@@H](C)O)NC(=O)[C@H](CCN)NC(=O)[C@H](CCN)NC(=O)[C@H](CC(C)C)NC(=O)[C@@H](CC(C)C)NC(=O)[C@H](CCN)NC1=O)[C@@H](C)O [colistin] ({Heptanoyl(6-Me)}-[Dab]T[Dab][Dab][Dab][dL]L[Dab][Dab]T; lactam 4-C) was run?
Answer: The value was 474 unité arbitraire.

Question: What about the “Aire sous la courbe des pics observés, Protéine ribosomique 50S L31” value (strain KP S10-1) of the same compound?
Answer: Its value is 321 unité arbitraire.

Question: What about the “Aire sous la courbe des pics observés, Protéine ribosomique 50S L34” value (strain KP S10-1) of the same compound?
Answer: Its value is 0 unité arbitraire.

Question: What about the “Aire sous la courbe des pics observés, US9” value (strain KP S10-1) of the same compound?
Answer: The value was 297 unité arbitraire.

Question: What about the “Ratio par protéine 6290/Colistine” value (strain KP S10-1) of the same compound?
Answer: The value was 0.55.

Question: What about the “Ratio par protéine 8308/Colistine” value (strain KP S10-1) of the same compound?
Answer: The value was 0.14.

Question: What about the “Ratio par protéine CsbD/Colistine” value (strain KP S10-1) of the same compound?
Answer: Its value is 0.00.

Question: What about the “Ratio par protéine DNA BP H-NS/Colistine” value (strain KP S10-1) of the same compound?
Answer: The value was 0.25.

Question: What about the “Ratio par protéine L29/Colistine” value (strain KP S10-1) of the same compound?
Answer: The value was 0.31.

Question: And the “Ratio par protéine L31/Colistine” value (strain KP S10-1)?
Answer: The value was 0.21.

Question: What about the “Ratio par protéine L34/Colistine” value (strain KP S10-1) of the same compound?
Answer: Its value is 0.00.

Question: And the “Ratio par protéine US9/Colistine” value (strain KP S10-1)?
Answer: Its value is 0.20.

Question: What about the Somme des ratios (strain KP S10-1) of the same compound?
Answer: Its Somme des ratios is 1.66.

Question: What about the “Aire sous la courbe des pics observés, 6290” value (strain KP S10-2) of the same compound?
Answer: Its value is 146 unité arbitraire.

Question: And the “Aire sous la courbe des pics observés, 8308” value (strain KP S10-2)?
Answer: The value was 54 unité arbitraire.

Question: And the “Aire sous la courbe des pics observés, CsbD domain-containing protein” value (strain KP S10-2)?
Answer: Its value is 0 unité arbitraire.

Question: And the “Aire sous la courbe des pics observés, DNA binding protein H-NS” value (strain KP S10-2)?
Answer: Its value is 119 unité arbitraire.

Question: What about the “Aire sous la courbe des pics observés, Protéine ribosomique 50S L29” value (strain KP S10-2) of the same compound?
Answer: The value was 124 unité arbitraire.

Question: What about the “Aire sous la courbe des pics observés, Protéine ribosomique 50S L31” value (strain KP S10-2) of the same compound?
Answer: Its value is 76 unité arbitraire.

Question: And the “Aire sous la courbe des pics observés, Protéine ribosomique 50S L34” value (strain KP S10-2)?
Answer: Its value is 134 unité arbitraire.

Question: What about the “Aire sous la courbe des pics observés, US9” value (strain KP S10-2) of the same compound?
Answer: Its value is 77 unité arbitraire.

Question: And the “Ratio par protéine 6290/Colistine” value (strain KP S10-2)?
Answer: Its value is 0.17.

Question: And the “Ratio par protéine 8308/Colistine” value (strain KP S10-2)?
Answer: Its value is 0.06.

Question: And the “Ratio par protéine CsbD/Colistine” value (strain KP S10-2)?
Answer: The value was 0.00.

Question: And the “Ratio par protéine DNA BP H-NS/Colistine” value (strain KP S10-2)?
Answer: The value was 0.14.

Question: What about the “Ratio par protéine L29/Colistine” value (strain KP S10-2) of the same compound?
Answer: Its value is 0.15.

Question: And the “Ratio par protéine L31/Colistine” value (strain KP S10-2)?
Answer: Its value is 0.09.

Question: What about the “Ratio par protéine L34/Colistine” value (strain KP S10-2) of the same compound?
Answer: The value was 0.16.

Question: What about the “Ratio par protéine US9/Colistine” value (strain KP S10-2) of the same compound?
Answer: Its value is 0.09.

Question: And the Somme des ratios (strain KP S10-2)?
Answer: Its Somme des ratios is 0.86.

Question: What about the “Aire sous la courbe des pics observés, 6290” value (strain KP S15-1) of the same compound?
Answer: Its value is 215 unité arbitraire.

Question: What about the “Aire sous la courbe des pics observés, 8308” value (strain KP S15-1) of the same compound?
Answer: Its value is 0 unité arbitraire.

Question: And the “Aire sous la courbe des pics observés, CsbD domain-containing protein” value (strain KP S15-1)?
Answer: Its value is 248 unité arbitraire.

Question: What about the “Aire sous la courbe des pics observés, DNA binding protein H-NS” value (strain KP S15-1) of the same compound?
Answer: Its value is 0 unité arbitraire.

Question: And the “Aire sous la courbe des pics observés, Protéine ribosomique 50S L29” value (strain KP S15-1)?
Answer: The value was 0 unité arbitraire.

Question: What about the “Aire sous la courbe des pics observés, Protéine ribosomique 50S L31” value (strain KP S15-1) of the same compound?
Answer: Its value is 0 unité arbitraire.

Question: What about the “Aire sous la courbe des pics observés, Protéine ribosomique 50S L34” value (strain KP S15-1) of the same compound?
Answer: The value was 0 unité arbitraire.

Question: And the “Aire sous la courbe des pics observés, US9” value (strain KP S15-1)?
Answer: Its value is 150 unité arbitraire.

Question: What about the “Ratio par protéine 6290/Colistine” value (strain KP S15-1) of the same compound?
Answer: The value was 0.24.

Question: What about the “Ratio par protéine 8308/Colistine” value (strain KP S15-1) of the same compound?
Answer: The value was 0.00.

Question: What about the “Ratio par protéine CsbD/Colistine” value (strain KP S15-1) of the same compound?
Answer: Its value is 0.28.

Question: And the “Ratio par protéine DNA BP H-NS/Colistine” value (strain KP S15-1)?
Answer: Its value is 0.00.

Question: What about the “Ratio par protéine L29/Colistine” value (strain KP S15-1) of the same compound?
Answer: The value was 0.00.

Question: What about the “Ratio par protéine L31/Colistine” value (strain KP S15-1) of the same compound?
Answer: Its value is 0.00.

Question: And the “Ratio par protéine L34/Colistine” value (strain KP S15-1)?
Answer: Its value is 0.00.

Question: What about the “Ratio par protéine US9/Colistine” value (strain KP S15-1) of the same compound?
Answer: The value was 0.17.

Question: What about the Somme des ratios (strain KP S15-1) of the same compound?
Answer: Its Somme des ratios is 0.68.

Question: And the “Aire sous la courbe des pics observés, 6290” value (strain KP S15-2)?
Answer: The value was 141 unité arbitraire.

Question: What about the “Aire sous la courbe des pics observés, 8308” value (strain KP S15-2) of the same compound?
Answer: The value was 0 unité arbitraire.

Question: What about the “Aire sous la courbe des pics observés, CsbD domain-containing protein” value (strain KP S15-2) of the same compound?
Answer: The value was 237 unité arbitraire.

Question: What about the “Aire sous la courbe des pics observés, DNA binding protein H-NS” value (strain KP S15-2) of the same compound?
Answer: Its value is 0 unité arbitraire.

Question: And the “Aire sous la courbe des pics observés, Protéine ribosomique 50S L29” value (strain KP S15-2)?
Answer: The value was 0 unité arbitraire.

Question: And the “Aire sous la courbe des pics observés, Protéine ribosomique 50S L31” value (strain KP S15-2)?
Answer: The value was 0 unité arbitraire.

Question: And the “Aire sous la courbe des pics observés, Protéine ribosomique 50S L34” value (strain KP S15-2)?
Answer: The value was 0 unité arbitraire.

Question: What about the “Aire sous la courbe des pics observés, US9” value (strain KP S15-2) of the same compound?
Answer: The value was 92 unité arbitraire.

Question: What about the “Ratio par protéine 6290/Colistine” value (strain KP S15-2) of the same compound?
Answer: Its value is 0.14.

Question: What about the “Ratio par protéine 8308/Colistine” value (strain KP S15-2) of the same compound?
Answer: The value was 0.00.

Question: And the “Ratio par protéine CsbD/Colistine” value (strain KP S15-2)?
Answer: The value was 0.23.

Question: What about the “Ratio par protéine DNA BP H-NS/Colistine” value (strain KP S15-2) of the same compound?
Answer: Its value is 0.00.

Question: What about the “Ratio par protéine L29/Colistine” value (strain KP S15-2) of the same compound?
Answer: Its value is 0.00.

Question: And the “Ratio par protéine L31/Colistine” value (strain KP S15-2)?
Answer: The value was 0.00.

Question: And the “Ratio par protéine L34/Colistine” value (strain KP S15-2)?
Answer: The value was 0.00.

Question: And the “Ratio par protéine US9/Colistine” value (strain KP S15-2)?
Answer: The value was 0.088.

Question: And the Somme des ratios (strain KP S15-2)?
Answer: Its Somme des ratios is 0.45.

Question: And the “classification by sum of the ratios against threshold” value (from here on “classification by sum of the ratios”) (strain KP-R9)?
Answer: The value was “resistant (the strains whose sum of the ratios is strictly below 0.45 will be considered as resistant)”.

Question: And the “classification by sum of the ratios” value (strain KP-R16)?
Answer: Its value is “resistant (the strains whose sum of the ratios is strictly below 0.45 will be considered as resistant)”.

Question: And the “classification by sum of the ratios” value (strain KP-S10)?
Answer: Its value is “sensitive (the strains whose sum of the ratios is greater than or equal to 0.45 will be considered as sensitive)”.

Question: And the “classification by sum of the ratios” value (strain KP-S15)?
Answer: Its value is “sensitive (the strains whose sum of the ratios is greater than or equal to 0.45 will be considered as sensitive)”.

Question: What about the “sensitivity or resistance to colistin by MALDI-TOF” value (“sensitivity or resistance” for short) (strain KP_R9) of the same compound?
Answer: Its value is “resistant”.

Question: What about the “sensitivity or resistance” value (strain KP_R16) of the same compound?
Answer: The value was “resistant”.

Question: And the “sensitivity or resistance” value (strain KP_S10)?
Answer: The value was “sensitive”.

Question: And the “sensitivity or resistance” value (strain KP_S15)?
Answer: Its value is “sensitive”.
